Literature values, collected in US9949970B2, “Synthesis of new benzothiazole derivatives as potential anti-tubercular agents” (priority 2010, dated 2018).
≈ marks a conversion by molar mass, not a printed value.

test system: M. tuberculosis H37Rv; conditions: closest benzothiazole compounds; cited from earlier work

SMILES | MIC [µg/mL]
O=[N+]([O-])c1ccc(CSc2nc3ccccc3s2)c([N+](=O)[O-])c1 | 2 (≈ 5.76 µM)
Clc1ccccc1/C=N/c1nc2ccccc2s1 | 73 (≈ 268 µM)
CC(=NNC1CSC(c2ccc3c(c2)CCC3)=N1)c1ccc(C)cc1 (stereo not drawn) | >6.5
